Compound | melting point [°C]
CNc1n[nH]c(=O)n1N | 214
C=CCOc1cccc2oc(C(=O)OCC)cc(=O)c12 | 122 to 123
O=c1c(Br)c(OCc2cccc(Cl)c2)ccn1Cc1cccc(F)c1 | 149 to 153
COc1ccccc1C1C(C(=O)c2ccc(C)cc2)=C(O)C(=O)N1c1ccc(C)nn1 (stereo not given) | 211 to 213
CCCCc1nnc(-c2ccc(OC)cc2)n1-c1ccc(OC)cc1 | 94
NC(=O)C1(Nc2ccccc2)CCN(C2CCC(c3ccc(F)cc3)(c3ccc(F)cc3)CC2)CC1 | 224 to 227
CCCCc1cc2c(=O)n3cc(C#N)ccc3nc2s1 | 216 to 217
Oc1ccc2c(c1)CCC(NCC(O)COc1cccc3ccccc13)C2 (stereo not given) | 118 to 120
CCc1cc(Cl)cc2c1OC(C(F)(F)F)C(C(=O)O)=C2 (stereo not given) | 197 to 199
CCOC(=O)COc1ccccc1Cc1ccc2ccccc2c1O | 124 to 125
Cc1noc(C)c1-c1ccc(OC2SCC(O)C(O)C2O)cn1 (stereo not given) | 138
CSc1nc(=O)n(Cc2ccccc2)c2nc[nH]c12 | 215 to 216
O=C1CCCc2c1c1cccc(F)c1n2Cc1ccccc1 | 183 to 184
CC(C)c1ccc(C(C)(C)C)c(O)c1C(=O)Nc1ccc(S(=O)(=O)C(F)(F)F)cc1Cl | 116
CC(C)Oc1ccc(CCCOc2ncccc2CC(=O)O)c(Oc2ncc(Cl)cc2Cl)c1 | 84 to 85
CCc1ccc2[nH]c(=O)[nH]c(=O)c2c1 | 271 to 274
COC(=O)c1cccc2c1CC(c1csc(-c3ccncc3)n1)C(=O)N2 (stereo not given) | 230 to 231
CN1CCN(c2c(F)c(F)c([N+](=O)[O-])c(F)c2F)CC1 | 77 to 78
COc1ccc(/C=C/c2nc3c([nH]2)c(=O)n(C)c(=O)n3C)c(Cl)c1OC | 242
O=C(CN1CCC(Cc2ccc(F)cc2)CC1)Nc1ccc2c(c1)OCC(=O)N2 | 209 to 211
CCOC(=O)c1c(-c2ccc(C(C)(C)C)cc2)n(C)n(-c2ccc(C#N)cc2)c1=O | 202 to 204
CN1C(=O)[C@H](NC(=O)C(c2ccccc2)c2ccccc2)N=C(c2ccccc2)c2ccccc21 | 200 to 201

Compound | melting point [°C]
CN(C)CCC(Oc1ccc(NS(C)(=O)=O)cc1)c1ccccc1 (stereo not given) | 145 to 147
Cc1cc(Nc2ccnc(Nc3ccc(S(=O)(=O)N(Cc4ccco4)C4CCN(C)CC4)cc3)n2)ccc1F | 184
CCCN(Cc1ccc(-c2ccccc2-c2nc(=O)o[nH]2)cc1)c1nc(C)ncc1C(=O)OCC | 176 to 177
CN1CC(=O)N(c2cccnc2)C1=S | 149 to 151
OC1c2cc(OCc3ccc4ccccc4n3)ccc2OCC1Cc1c[nH]c2ccccc12 (stereo not given) | 60
CC1CC2C3CCC4=CC(=O)C=CC4(C)C3=CCC2(C)C1C(=O)CN1CCN(c2cc(NCC(C)(C)C)nc(NCC(C)(C)C)n2)CC1 (stereo not given) | 140 to 150
O=[N+]([O-])C(F)(CCc1nnc(C(F)(F)C(F)(F)C(F)(F)F)o1)[N+](=O)[O-] | 21 to 22
CC(=O)N(C(C)=O)c1c(C#N)cnn1-c1ncc(C(F)(F)F)cc1Cl | 130 to 132
CCCNCC(O)c1cccc(Br)c1 (stereo not given) | 79.7 to 81.4
O=C(Nc1ccc(Oc2ccnc(N3CCOCC3)n2)c2ccccc12)c1cc(F)cc(N2CCOCC2)c1 | 104 to 106
Cc1c(C(=O)O)ccc2c1OC(c1ccccc1)(c1ccccc1)O2 | 263 to 265
c1ccc2c3c([nH]c2c1)CCC3 | 135
COc1cccc(Cn2c(-c3ccccc3)nc(Cl)c2CC(=O)O)c1 | 135 to 138
COCCOc1ccc2cc3ccccc3cc2c1C=O | 114 to 117
CC12CCC(=O)C=C1N(C(C)(C)C)CC1C2CCC2(CC(=O)O)C(C(=O)O)CCC12 (stereo not given) | 215 to 216
NNC1=Nc2ccc(Cl)cc2C(c2ccccc2F)S(=O)(=O)CC1 (stereo not given) | 159
COc1ccc(C2=NN(c3ccc(C(C)(C)C)cc3)C(=O)[C@H]3CC=CC[C@@H]23)cc1OC (relative stereo) | 197 to 199
Cc1cc(C(Cl)=C(Cl)Cl)cc(C(Cl)=C(Cl)Cl)c1 | 41.4 to 44.6
CN1C(=O)C(C(=O)Nc2ccccn2)Sc2ccccc21 (stereo not given) | 141 to 143
O=C1c2cc([N+](=O)[O-])ccc2-n2c1nc1ccccc1c2=O | 302 to 303
CC(C)c1ccccc1N1CCS/C1=N/N=C\c1ccc(-c2ncn(-c3ccc(OC(F)(F)F)cc3)n2)cc1 | 193 to 196
CC(C)c1ccc(C(=O)C(C)c2ccccc2)c(C(C)C)c1OS(N)(=O)=O (stereo not given) | 142 to 144

Compound | melting point [°C]
O=C(Nc1cc(Cl)c([N+](=O)[O-])cc1O)C(=O)Nc1cc(Cl)c([N+](=O)[O-])cc1O | 302
Cc1c(-c2ccccc2)n[nH]c1OCCN1CCOCC1 | 100
Cc1cncc2c1C(=N)N(Cc1ccccc1)S2(=O)=O | 37 to 39
CSC1=N[C@@H](c2ccccc2)[C@H](c2ccccc2)N1 (relative stereo) | 132 to 134
O=C(O)CC(NC(=O)C(Cl)Cl)C(=O)O (stereo not given) | 165 to 168
COc1ccc(C=CC(=O)O)cc1-c1cc2c(cc1OCCCCCO)C(C)(C)CCC2(C)C | 115 to 117
CN1CCN(c2ccc(N)cc2C#N)CC1 | 45 to 46
CCCCCS(=O)(=O)NC(=O)/C=C/c1ccc(OCCO[Si](c2ccccc2)(c2ccccc2)C(C)(C)C)cc1Oc1ncc(C(F)(F)F)cc1Cl | 108
CCC1(CC)OC(C(=O)O)Oc2ccc(Cl)cc21 (stereo not given) | 108
CCOC(=O)Cc1ccc(-c2cn3cccnc3n2)cc1 | 155 to 158
COc1cc(C(N)=O)c([N+](=O)[O-])cc1OC | 197
COc1ccc(S(=O)(=O)c2sc(S(N)(=O)=O)cc2C)cc1 | 140 to 143
COc1c(SCc2ccco2)ccnc1CO | 56 to 58
CC(C)(C)c1ccc(C#N)c(NC(=O)Nc2cccnc2)c1 | 164 to 166
O=c1n(CCCF)nnn1-c1cc(Oc2ccc(O)cc2)c(Cl)cc1F | 157 to 159
CCOC(=O)c1c(-c2ccc(F)cc2)oc(-c2ccc(F)cc2)cc1=O | 113 to 114
CN1Cc2c(-c3nc(CN(CC4CC4)CC4CC4)no3)ncn2-c2ccccc2C1=O | 170 to 174
Cc1cccc(NC(=O)c2ccn3c2CSC3c2cccnc2)n1 (stereo not given) | 162
c1ccc(C(c2ccccc2)N2CC(n3ccnn3)C2)cc1 | 167 to 168
CCCCCCCCOc1ccc(C(=O)COC(C)=O)cc1 | 44 to 45
O=CNC(Cl)C(Cl)(Cl)CCl (stereo not given) | 55 to 57

Next, values leading:

melting point [°C] | Compound
224 | COc1cc2cc(C#N)c(Cl)nc2cc1OC
192 to 194 | OCc1ccc(OCc2ccccc2)c2ncccc12
177 to 180 | CCCN1CCCC1CNC(=O)c1cc(S(N)(=O)=O)cc2c1OC(C)C2 (stereo not given)
140 | OC1CCc2[nH]c3ccccc3c2C1 (stereo not given)
50.5 to 51.5 | CCCS(=O)c1ncn(C(=O)N(CC)CC)n1 (stereo not given)
147 to 148 | CC(=O)Nc1c(Cl)cnn(C)c1=O
172 | COc1c(Cl)cc(C(=O)O)c2c1OCCO2
199 to 200 | Cc1ccc(C(=S)c2c(C)cc(Cc3ccc(N)cc3F)n2C)cc1
169 to 172 | OCC1N=c2c(ccc3c2=CC=N3)O1 (stereo not given)
32 to 33 | CN1CCN(C)CCN2CCOCCOCCN(CC1)CCN(C)CCN(C)CC2
135 | CC(=O)OCC1=C(C(=O)OCOC(=O)C(C)(C)C)N2C(=O)C(NC(=O)Cc3csc(=O)s3)C2SC1 (stereo not given)
73 | CCCCC(Cc1ccc(OCc2ccccc2)cc1)(C(=O)OCC)C(=O)OCC
78 | CNC(=O)C(=O)c1ccccc1COc1ccccc1
104 to 106 | CN(C)CC1CC(c2ccc(S(C)(=O)=O)cc2)=C(c2cc(F)cc(F)c2)C1=O (stereo not given)
68 | CCC1(CCO)OCCc2c1[nH]c1c(C)cccc21 (stereo not given)
114 to 116 | O=C(Oc1ccc(CS(=O)(=O)Cc2ccc(OC(=O)C3CC3)c([N+](=O)[O-])c2)cc1[N+](=O)[O-])C1CC1
78 to 81 | CCCN(c1nc(-c2ccc(Cl)cc2Cl)c(C)s1)C(c1ccccc1)C1CC1 (stereo not given)
87 to 88 | Cc1nc(S(=O)(=O)CC(=O)OCc2cccs2)nc(C)c1Br

melting point [°C] | Compound
158 to 160 | COc1cc2c(c(OC)c1OC)C(C#N)N(C(=O)c1ccccc1)C=C2 (stereo not given)
104 to 107 | C=CCCCS(=O)(=O)CCCC(=O)O
91 to 92 | C=CCOc1cc(C=CNC(=O)OC)ccc1OCC(O)CNC(C)C (stereo not given)
162 to 164 | CC(=O)c1c(C)[nH]c(C2CCCC2)c1C
201 to 202 | Oc1ccc(-c2c3ccccc3cc3oc4ccccc4c23)c(O)c1
168 to 172 | O=C(c1ccccc1SSc1ccccc1C(=O)N1CCC(O)C1)N1CCC(O)C1 (stereo not given)
208 to 210 | Cc1ccc(C(=O)N2CCc3nnc(NN=C4CCCCC4)cc3C2)cc1
346 | O=c1[nH]c2ccc(Cl)cc2n2cc(-c3ccccc3)cc12
97 to 98 | CSC(Cc1cnn(-c2c(Cl)cc(C(F)(F)F)cc2Cl)n1)SC
154 to 158 | CCCCc1nc(Cl)c(CN2CCN(c3ccccc3OC)CC2)n1Cc1ccc(-c2ccccc2-c2nnn[nH]2)cc1
200 to 203 | Nc1cc(Cl)c(Sc2cccc3cnccc23)cc1N
216 | O=C(O)CCCc1cc2nc(Cl)ccc2n1S(=O)(=O)c1ccc2c(c1)OC(F)(F)O2
120 | C=C(C)/C=C(\NC(C)=O)C1(c2ccc(Cl)cc2)CCC1
164 to 166 | COc1cc2c(cc1OC)CN(CCCc1ccc(NC(=O)c3nc4cc(C)c(C)cc4nc3OC)cc1)CC2
76 to 77 | CCSC(=O)Cc1csc(N)n1
132 to 134 | COC(=O)Cc1c(C)n(Cc2ccc(Cl)cc2)c2ccc(OCc3ccc4ccccc4n3)cc12
188 to 192 | CCCOc1ccc(S(=O)(=O)N2CCN(CC(=O)OCC)CC2)cc1-c1nc2cc3nc[nH]c3cc2c(=O)[nH]1

From a melting point compilation (Tetko et al.; mined from patent text by program, amines drawn as free bases though some values may be those of a salt)
